The values below come from patent publication US8735384B2, “Amino heteroaryl compounds as beta-secretase modulators and methods of use” (Amgen Inc., priority 2010, dated 2014).

The target of one assay is BACE1 (Homo sapiens, UniProt P56817). The assay is described as follows: In vitro enzymatic BACE FRET assay. To be noted: beta secretase enzyme 0.2 nM, FRET substrate 50 nM, pH 4.2; read-out: BACE1 FRET assay (IC50 class). In kind it is biochemical. An outline of the steps:
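Beta-secretase (0.2 nM) was pre-incubated 1 h with serially diluted inhibitor in 0.05 M acetate pH 4.2, 10% DMSO, 100 uM genapol. Then 50 nM quenched peptide FRET substrate was added for 1 h. The reaction was stopped with Tris to neutral pH and fluorescence read ([…]).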

The test system of assay [1] is Aβ40 in conditioned medium of cells stably expressing Amyloid Precursor Protein (APP). Description: In vitro BACE cell-based assay (HEK cell assay), Aβ40 sandwich ELISA. To be noted: inhibition of Aβ40, 24 h incubation, read-out: HEK cell assay (IC50 class). An outline of the steps:
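APP-stably expressing cells (40K/well) grown 24 h, then treated 24 h with 10-point doses from 100 μM or 10 μM top (0.1% DMSO). Secreted Aβ40 quantified by sandwich ELISA (pAb40 capture, biotinylated 6E10 detection, europium time-resolved fluorescence); IC50 from percent inhibition versus concentration.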

Like-named read-outs stand apart in the source and are kept apart here.

BACE1, sequence (P56817 46-501, species assumed): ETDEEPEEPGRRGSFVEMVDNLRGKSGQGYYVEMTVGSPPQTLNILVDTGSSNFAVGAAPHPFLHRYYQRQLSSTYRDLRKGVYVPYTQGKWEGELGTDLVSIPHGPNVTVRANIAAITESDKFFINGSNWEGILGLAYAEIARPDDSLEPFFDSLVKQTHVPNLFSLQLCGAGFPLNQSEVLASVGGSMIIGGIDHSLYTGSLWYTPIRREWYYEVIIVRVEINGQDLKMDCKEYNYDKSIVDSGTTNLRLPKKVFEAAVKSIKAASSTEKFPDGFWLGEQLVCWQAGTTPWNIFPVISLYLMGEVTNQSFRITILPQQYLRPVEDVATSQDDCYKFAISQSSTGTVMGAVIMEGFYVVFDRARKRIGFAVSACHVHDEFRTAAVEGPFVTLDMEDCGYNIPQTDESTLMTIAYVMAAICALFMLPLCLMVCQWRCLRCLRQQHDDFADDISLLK

The IC50 is the concentration needed to halve the response being measured. For the compound `Cc1cccc(/C(=N/O)c2ccccc2)c1-c1ccc2nc(N)c(N3CCOCC3)cc2c1` [Example 190, (E)-(2-(2-amino-3-morpholinoquinolin-6-yl)-3-methylphenyl)(phenyl)methanone oxime], the IC50 on BACE1 is less than 100 nM; in assay [1] it was 100 to 500 nM.
Take `Cc1cccc(C(=O)N2CCCCC2)c1-c1ccc2nc(N)c(N3CCOCC3)cc2c1` [Example 58, (2-(2-amino-3-morpholinoquinolin-6-yl)-3-methylphenyl)(piperidin-1-yl)methanone]: the IC50 was less than 100 nM on BACE1 and 501 to 1000 nM in assay [1] (Homo sapiens, HEK293, 24 h).
The like results for `Cc1cccc(Cc2ccc(F)cc2)c1-c1ccc2nc(N)c(N3CCOCC3)cc2c1` [Example 201, 6-(2-(4-fluorobenzyl)-6-methylphenyl)-3-morpholinoquinolin-2-amine] were, in that order, less than 100 nM and 1010 to 5000 nM.
The corresponding values for `Cc1cccc(-c2nnc3ccccn23)c1-c1ccc2nc(N)c(N3CCOCC3)cc2c1` [Example 22, 6-(2-([1,2,4]triazolo[4,3-a]pyridin-3-yl)-6-methylphenyl)-3-morpholinoquinolin-2-amine] are 100 to 500 nM and 501 to 1000 nM.
With `Cc1cccc(-n2cc(Cl)cn2)c1-c1ccc2nc(N)c(N3CCOCC3)cc2c1` [Example 204, 6-(2-(4-chloro-1H-pyrazol-1-yl)-6-methylphenyl)-3-morpholinoquinolin-2-amine], the IC50 at BACE1 is 501 to 1000 nM; in assay [1] (Homo sapiens, HEK293, 24 h), more than 5000 nM.
The like results for `Cc1cccc(C(=O)N2CCCC(F)(F)C2)c1-c1ccc2nc(N)c(N3CCOCC3)cc2c1` [Example 97, (2-(2-amino-3-morpholinoquinolin-6-yl)-3-methylphenyl)(3,3-difluoropiperidin-1-yl)methanone] were, in that order, less than 100 nM and 501 to 1000 nM.
The like results for `Cc1cccc(C(=O)N(C)C2CCCC2)c1-c1ccc2nc(N)c(N3CCOCC3)cc2c1` [Example 92, 2-(2-amino-3-morpholinoquinolin-6-yl)-N-cyclopentyl-N,3-dimethylbenzamide] were, in that order, less than 100 nM and 501 to 1000 nM.
The corresponding values for `CCOC(=O)c1cccc(C)c1-c1ccc2nc(N)c(N3CCOCC3)cc2c1` [Example 62, ethyl 2-(2-amino-3-morpholinoquinolin-6-yl)-3-methylbenzoate] are 100 to 500 nM and 1010 to 5000 nM.
Take `Nc1nc2ccc(-c3c(F)cccc3C(=O)N3CCCC3)cc2cc1N1CCOCC1` [Example 148, (2-(2-amino-3-morpholinoquinolin-6-yl)-3-fluorophenyl)(pyrrolidin-1-yl)methanone]: the IC50 on BACE1 was in the range of 100 to 500 nM; in assay [1] (Homo sapiens, HEK293, 24 h), 1010 to 5000 nM.
The like results for `Cc1cccc(N2CC(C)(C)OCC2=O)c1-c1ccc2nc(N)c(N3CCOCC3)cc2c1` [Example 49, 4-(2-(2-amino-3-morpholinoquinolin-6-yl)-3-methylphenyl)-6,6-dimethylmorpholin-3-one] were, in that order, 100 to 500 nM and 1010 to 5000 nM.
The like results for `Cc1cccc(C(N)c2ccccc2)c1-c1ccc2nc(N)c(N3CCOCC3)cc2c1` (stereo not shown) [Example 17, 6-(2-(amino(phenyl)methyl)-6-methylphenyl)-3-morpholinoquinolin-2-amine] were, in that order, less than 100 nM and less than 100 nM.
The like results for `Nc1nc2ccc(-c3ccccc3Cl)cc2cc1N1CCOCC1` [Example 219, 6-(2-chlorophenyl)-3-morpholinoquinolin-2-amine] were, in that order, 501 to 1000 nM and more than 5000 nM.
On to `COc1cccnc1C(N)c1cccc(C)c1-c1ccc2nc(N)c(N3CCOCC3)cc2c1` (stereo not shown) [Example 198, 6-(2-(amino(3-methoxypyridin-2-yl)methyl)-6-methylphenyl)-3-morpholinoquinolin-2-amine], for which the IC50 is 100 to 500 nM on BACE1 and less than 100 nM in assay [1] (Homo sapiens, HEK293, 24 h).
As to `Cc1cccc(C(=O)N2CCC(C(C)(C)C)CC2)c1-c1ccc2nc(N)c(N3CCOCC3)cc2c1` [Example 93, (2-(2-amino-3-morpholinoquinolin-6-yl)-3-methylphenyl)(4-tert-butylpiperidin-1-yl)methanone], the IC50 is less than 100 nM on BACE1 and 501 to 1000 nM in assay [1] (Homo sapiens, HEK293, 24 h).
